According to PubChem BioAssay AID2823 (Broad Institute, 2010):
Activity calls are given as the source filed them. No rule for the calls is given here.

Biological target: RanGTP-importin-beta complex (human Ran / KPNB1)
Assay: Ran–importin-beta interaction inhibitors, confirmation, biochemical, FRET, CFP/YFP, cell-free homogeneous (AID 2823)
Settings: CFP-Ran/YFP-importin-beta FRET ratio

With `Cc1ccc(C2C(C#N)=C(N)N(c3cccnc3)C3=C2C(=O)CCC3)c(C)c1` (configuration not stated) the IC50 was > 50 µM (inactive).

For `CCN1CCC2(CC1)C(C#N)=C(N)Oc1c2sc2nc(C)cc(C)c12`, the IC50 was > 50 µM (inactive).

For `N#Cc1c(N)nc2c(c1-c1ccc(F)cc1)CCC2`, the IC50 was 11 µM.

In the case of `Cc1ccc(S(=O)(=O)NC(C(=O)Oc2ccc3ccc(=O)oc3c2)c2ccccc2)cc1` (configuration not stated), the IC50 is reported as 24.8 µM.

For `CCc1cc2c(COC(=O)c3c(C)noc3C)cc(=O)oc2cc1O`, the IC50 was > 50 µM (inactive).

`O=c1c2cc(NC(=S)N3CCC(N4CCCCC4)CC3)ccc2nc2n1CCCCC2` was tested, and the IC50 was > 50 µM (inactive).

For `Cn1cnnc1SCC(=O)c1cc2ccccc2oc1=O`, the IC50 was > 50 µM (inactive).

With `CCc1cc(=O)oc2c(CN3CCN(C)CC3)c(O)c(Cl)cc12` the IC50 was 27.1 µM.

For `Cc1c(CC(=O)O)c(=O)oc2c(C)c3occ(-c4ccc(F)cc4)c3cc12`, the IC50 was > 50 µM (inactive).

For `COc1ccc(CCNc2c3ccccc3nc3ccccc23)cc1OC`, the IC50 was 12.5 µM.

With `Nc1nonc1-n1nnc(C(=O)N/N=C/c2ccccc2)c1CSc1ccc(Cl)cc1` the IC50 was > 50 µM (inactive).

`COc1ccccc1C(=O)NC(=S)Nc1ccc(N2CCCC2)cc1` was tested, and the IC50 was > 50 µM (inactive).

`NC(=S)Cc1nc(-c2ccc(Cl)cc2)cs1` was tested, and the IC50 was > 50 µM (inactive).

In the case of `COc1ccc2cc(C(=O)N/N=C/c3sc4ccccc4c3O)ccc2c1`, the IC50 is reported as > 50 µM (inactive).

For `CCOC(=O)c1sc(NC(=O)Nc2ccc(F)cc2)nc1C`, the IC50 was > 50 µM (inactive).

For `O=C(COC(=O)c1cccnc1Nc1ccccc1F)NCCN1C(=O)CSC1=O`, the IC50 was > 50 µM (inactive).

With `Cc1[nH]nc2c1C(c1ccoc1)C(C#N)=C(N)O2` (configuration not stated) the IC50 was > 50 µM (inactive).

For `Cc1cc2c(c(=O)n1C1CC1)C(c1cccc(Cl)c1)C(C#N)=C(N)O2` (configuration not stated), the IC50 was > 50 µM (inactive).

In the case of `Cc1cccc(C)c1NC(=O)C1c2cccc[n+]2CC(=O)N1Cc1cccs1` (configuration not stated), the IC50 is reported as > 50 µM (inactive).

In the case of `Cc1ccccc1Cn1nnc(-c2cccc(C(=O)O)c2)n1`, the IC50 is reported as > 50 µM (inactive).

For `CC(c1nc2ccccc2n1Cc1ccccc1)N1CCCCC1` (configuration not stated), the IC50 was > 50 µM (inactive).

`COc1ccc(N2Cc3ccccc3/C2=N\C(=O)Nc2ccccc2)cc1` was tested, and the IC50 was > 50 µM (inactive).

Work on `O=C(c1ccccc1)c1cc2ccc(O)cc2oc1=O` yielded an IC50 of 13 µM.

With `COc1cccc(-c2cc(C(=O)NC3CC3)c3ccccc3n2)c1` the IC50 was > 50 µM (inactive).

In the case of `CN1CCN(C(=O)c2cc3nc(-c4ccccc4)cc(C(F)(F)F)n3n2)CC1`, the IC50 is reported as > 50 µM (inactive).

Work on `CCOCCCNC(=S)NCCNc1nc2c(C)cccc2cc1C#N` yielded an IC50 of 36.1 µM.

For `O=C(NC1=NCCS1)c1cc(-c2cccnc2)nc2ccccc12`, the IC50 was > 50 µM (inactive).

With `Cc1c(CCC(=O)NCCCN2CCCC2=O)c(=O)oc2c(C)c(O)ccc12` the IC50 was 15.6 µM.

In the case of `O=C(CN1C(=O)NC2(CCCC2)C1=O)Nc1nc2c(F)cc(F)cc2s1`, the IC50 is reported as > 50 µM (inactive).

For `COc1ccc(C2NCCc3c2[nH]c2ccccc32)cc1COc1ccc(F)cc1` (configuration not stated), the IC50 was > 50 µM (inactive).

For `O=C(Oc1c(CN2CCOCC2)cc(Cl)c2cccnc12)c1ccccc1`, the IC50 was > 50 µM (inactive).

`O=C(c1cc2c(=O)n3ccccc3nc2s1)N1CCN(Cc2ccccc2)CC1` was tested, and the IC50 was > 50 µM (inactive).

With `COc1ccc(-c2c(C)sc(NC(=O)c3ccnn3C)c2C#N)cc1` the IC50 was > 50 µM (inactive).

In the case of `COc1ccccc1NC(=O)c1cc2ccccc2nc1C`, the IC50 is reported as > 50 µM (inactive).

In the case of `O=C(c1cccc(-c2ccccc2)c1)N1CC[C@@H](N2CCC(O)CC2)[C@H](O)C1`, the IC50 is reported as > 50 µM (inactive).

With `CC(C)(C)Nc1c2ccccc2nc2ccccc12` the IC50 was > 50 µM (inactive).

With `CCOC(=O)C1CCN(c2cc(=O)n(C3CCCCC3)c(=O)[nH]2)CC1` the IC50 was > 50 µM (inactive).

`CCOC(=O)c1[nH]c(C)c(C(=O)N(C)Cc2ccccc2)c1C` was tested, and the IC50 was > 50 µM (inactive).

For `C=CCN1C(=O)/C(=C2/Sc3ccccc3N2CC)SC1=S`, the IC50 was > 50 µM (inactive).

`O=S(=O)(Cc1ccc(Cl)cc1)Nc1ccc2c(c1)OCO2` was tested, and the IC50 was > 50 µM (inactive).

`O=c1cc(CN2CCN(Cc3ccccc3)CC2)c2ccc(O)cc2o1` was tested, and the IC50 was 11.1 µM.

`COc1ccc(C(=O)Nc2sc3c(c2C#N)CCN(C(C)=O)C3)cc1` was tested, and the IC50 was > 50 µM (inactive).

In the case of `CCn1c(SCC(=O)N(Cc2ccccc2)C2CCS(=O)(=O)C2)nc2ccccc2c1=O` (configuration not stated), the IC50 is reported as > 50 µM (inactive).

`COCCNC(=O)c1c(NC(=O)c2ccco2)n(Cc2ccccc2)c2nc3ccccc3nc12` gave an IC50 of 1.91 µM.

With `Cc1cc2oc3cc(NCCC4CCCN4C)ccc3c(=O)c2cc1C` (configuration not stated) the IC50 was 8.12 µM.

For `OCCNCc1cccc(OCc2ccccc2Cl)c1`, the IC50 was > 50 µM (inactive).

With `Oc1ccc(/C=N/Nc2cc(N3CCOCC3)nc(N3CCOCC3)n2)cc1` the IC50 was > 50 µM (inactive).

`CS(=O)(=O)N(CC(=O)NCCSCc1ccco1)c1ccc(Cl)cc1` was tested, and the IC50 was > 50 µM (inactive).

In the case of `Cc1cc(S(=O)(=O)N2CCN(c3c(C)cccc3C)CC2)ccc1F`, the IC50 is reported as > 50 µM (inactive).

With `Cc1ccc(Cn2ccc(NC(=O)c3noc4c3CCc3ccccc3-4)n2)cc1` the IC50 was > 50 µM (inactive).

`COc1ccc(-c2nc3ccc(C(=O)NCCCN4CCOCC4)cc3nc2-c2ccc(OC)cc2)cc1` showed an IC50 of 46.4 µM.

In the case of `COc1ccc(N2C(=O)CC(C#N)=C2N)cc1`, the IC50 is reported as > 50 µM (inactive).

Compound `CCCc1cc(=O)oc2c(CN3CCCC3)c(O)c(Cl)cc12` has an IC50 of 27.1 µM.

In the case of `CCCC(=O)NNc1c2ccccc2nc2ccccc12`, the IC50 is reported as > 50 µM (inactive).

For `Cc1ccc(Nc2nc(N)[nH]c(=O)c2N=O)cc1`, the IC50 was 16.1 µM.

`COC(=O)c1cc(=O)n2c(sc3ccccc32)c1C#N` showed an IC50 of 1.32 µM.

In the case of `CN1CCN(c2ccc(S(=O)(=O)N3CCCCC3)cc2NC(=O)Cc2ccc(Cl)cc2)CC1`, the IC50 is reported as > 50 µM (inactive).

`Cc1cc(/C=C2\C(=O)NC(=O)N(c3ccc(F)cc3)C2=O)c(C)n1-c1ccc(C(=O)O)cc1` was tested, and the IC50 was > 50 µM (inactive).

With `CCCn1cnc2cc(NCc3ccc(Br)cc3)ccc21` the IC50 was > 50 µM (inactive).

For `COC(=O)c1ccc2c(C(C)(C)O)c(C(C)(C)O)[nH]c2c1`, the IC50 was > 50 µM (inactive).

For `CCOc1ccccc1NC1=CC(=O)CC(c2ccccc2)C1` (configuration not stated), the IC50 was > 50 µM (inactive).

`O=C(Cc1cc(=O)oc2cc(O)ccc12)N[C@@H](Cc1c[nH]c2ccccc12)C(=O)O` was tested, and the IC50 was > 50 µM (inactive).

For `Cc1ccccc1N=Cc1cc2c(cc1O)OC(N)=C(C#N)C2c1ccccc1` (configuration not stated), the IC50 was > 50 µM (inactive).

`COc1ccccc1/C=C/c1nc(C#N)c(N(C)C)o1` showed an IC50 of 17.4 µM.

`Cc1ccc(C(=O)NCc2ccco2)cc1S(=O)(=O)N1CCOCC1` was tested, and the IC50 was > 50 µM (inactive).

With `Cc1ccc2nc(/C(C#N)=C/c3ccc(O)c(O)c3)[nH]c2c1` the IC50 was > 50 µM (inactive).

With `COCCOC(=O)C1=C(C)OC(N)=C(C(=O)OC)C12C(=O)Nc1ccccc12` (configuration not stated) the IC50 was > 50 µM (inactive).

In the case of `C=CCn1c(=O)c(C(=O)Nc2ccc(C)cc2)c(O)c2ccccc21`, the IC50 is reported as > 50 µM (inactive).

`CCN(CC)S(=O)(=O)c1ccc(OC)c(NC(=O)C2CC(=O)N(c3ccc(C)cc3)C2)c1` (configuration not stated) was tested, and the IC50 was > 50 µM (inactive).

`COc1ccc2c(c1)C(c1ccc(C)o1)=NNC(c1cccnc1)=N2` was tested, and the IC50 was > 50 µM (inactive).

For `C/C(=N\NC(=O)c1c(C)nc2ccccn12)c1ccc(O)cc1O`, the IC50 was > 50 µM (inactive).

For `COc1ccc(-c2c(C)c3ccc(O)cc3oc2=O)cc1OC`, the IC50 was 37.2 µM.

With `COCCNC(=S)N1CCCN(c2nc3cc(C)ccc3cc2C#N)CC1` the IC50 was 29.5 µM.

`CCN(CC)Cc1c(O)ccc2c(C)c(CC(=O)OC)c(=O)oc12` showed an IC50 of 14 µM.

In the case of `COc1ccc2cc(CCN3C(=O)c4ccccc4C3=O)c(=O)[nH]c2c1`, the IC50 is reported as > 50 µM (inactive).

With `Cc1ccccc1-n1c(=O)cc(N2CC(C)OC(C)C2)[nH]c1=O` (configuration not stated) the IC50 was > 50 µM (inactive).

`Cc1ccc(N=Cc2cc3c(cc2[N+](=O)[O-])OCO3)cc1[N+](=O)[O-]` was tested, and the IC50 was > 50 µM (inactive).

With `COc1ccc2c(CC#N)c[nH]c2c1` the IC50 was > 50 µM (inactive).

In the case of `c1ccc(-n2nnnc2-c2cnc(-c3cccnc3)nc2-c2cccs2)cc1`, the IC50 is reported as > 50 µM (inactive).

In the case of `O=C(c1cc2c(=O)n3ccccc3nc2s1)N1CCN(c2cccc(Cl)c2)CC1`, the IC50 is reported as > 50 µM (inactive).

In the case of `CC(C)OCCCNC(=O)CCSc1ccc(Cl)cc1`, the IC50 is reported as > 50 µM (inactive).

In the case of `O=C(Nc1cccc(F)c1)c1ccc(S(=O)(=O)NCC2CCCO2)cc1` (configuration not stated), the IC50 is reported as > 50 µM (inactive).

Work on `CCOCCCn1c(=N)c(C(=O)NCc2ccc3c(c2)OCO3)cc2c(=O)n3cccc(C)c3nc21` yielded an IC50 of 14.9 µM.

For `O=C(COC(=O)CSCC(=O)N1CCCCC1)Nc1ccc(Cl)cc1`, the IC50 was > 50 µM (inactive).

In the case of `CCN(CC)S(=O)(=O)c1ccc2oc(C(=O)NCCCN3CCOCC3)c(C)c2c1`, the IC50 is reported as > 50 µM (inactive).

`C=CCn1c(N)c(C(=O)OC(C)CC)c2nc3ccccc3nc21` (configuration not stated) gave an IC50 of 19.8 µM.

With `Cc1ccc(N2CCN(c3ccc(C)cc3)C2c2ccccn2)cc1` the IC50 was > 50 µM (inactive).

`Nc1c(C(=O)NC2CCCC2)c2nc3ccccc3nc2n1/N=C/c1ccco1` was tested, and the IC50 was 14.3 µM.

`CCCn1c(SCC(=O)Nc2ccc(NC(C)=O)cc2)nc2c1c(=O)n(C)c(=O)n2C` was tested, and the IC50 was > 50 µM (inactive).

In the case of `Cc1ccccc1NC(=O)/C(C#N)=C\c1cn(CC(=O)O)c2ccccc12`, the IC50 is reported as 47.6 µM.

In the case of `Cc1nc2ccc(NC(=O)c3nn(CC(C)C)c(=O)c4ccccc34)cc2s1`, the IC50 is reported as > 50 µM (inactive).

With `CCN(C(=O)c1ccc(Cl)cc1[N+](=O)[O-])c1ccccc1C` the IC50 was > 50 µM (inactive).

With `CC(C)OC(=O)c1c(N)n(CC2CCCO2)c2nc3ccccc3nc12` (configuration not stated) the IC50 was 18 µM.

With `N#Cc1ccc(/C=C(\C(=O)C(=O)O)c2ccc3ccccc3n2)cc1` the IC50 was 12 µM.

For `CC(C)C1C2=C(CC(C)(C)CC2=O)ON1c1ccccc1` (configuration not stated), the IC50 was > 50 µM (inactive).

In the case of `NC(=O)c1sc2nccc(Nc3ccccc3)c2c1N`, the IC50 is reported as > 50 µM (inactive).

With `O=C(O)/C=C/C(=O)Nc1ccc2c(c1)NC(=O)CO2` the IC50 was > 50 µM (inactive).

For `O=C(NNc1c2ccccc2nc2ccccc12)c1cc2ccccc2cc1O`, the IC50 was > 50 µM (inactive).

`Cc1c(NC2=CC(=O)CCC2)c(=O)n(-c2ccccc2)n1C` was tested, and the IC50 was > 50 µM (inactive).

With `COCCNC(=O)C(C)OC(=O)c1cc2occc2n1C` (configuration not stated) the IC50 was > 50 µM (inactive).

In the case of `CN(C)c1ccc(/C=C(\NC(=O)c2ccccc2)C(=O)NCc2ccncc2)cc1`, the IC50 is reported as > 50 µM (inactive).

`Cc1cccc(C)c1OCC(=O)OC/C(O)=C(\C#N)c1nc2ccccc2[nH]1` was tested, and the IC50 was > 50 µM (inactive).
